The values that follow come from patent US20180000745A1, “CRUCIFERIN COATED NANOPARTICLES” (priority 2016, published 2018).

Molecules are shown by their SMILES.

The test system of this test is Caco-2 cells. Briefly: Cell uptake of coumarin-6-loaded particles by confocal microscopy. The format is cell-based. Conditions: 6 h incubation; particles 0.5 mg/mL, coumarin-6 […] in DMEM. Here is the method: To study the cell uptake of nanoparticles in Caco-2 cells, coumarin-6, as a fluorescent marker, was encapsulated into the nanoparticles. The cellular uptake of coumarin-6-loaded nanoparticles was compared with free coumarin-6 (not encapsulated). In brief, 1 mL of coumarin-6 solution in ethanol at concentrations ranging from 10 to 400 μg/mL was mixed with 9 mL 2 mg/mL chitosan solution in 0.1 M acetic acid. 9 mL of 5 mg/mL cruciferin solution (solubilized at pH 12) was added dropwise to the solution while stirring. The pH of the suspension was adjusted to 5.5, stirred for 2 h and then centrifuged at 40000 g and 4° C. for 30 min, Loaded particles pellet was collected, washed twice with water and centrifuged to remove free coumarin-6. The labelled particles were re-suspended in DMEM medium at concentrations of 0.1, 0.5 and 1 mg/mL. The size and zeta potential of the re-suspended particles were measured. Caco-2 cells (10^5 cells/well) were seeded on cover glasses placed in 6-well plates (Costar, Corning, N.Y.), and incubated until cells were about 80% confluent. 2.5 mL of labelled-particles suspensions or free coumarin-6 solution in DMEM medium was added to each well and incubated for 6 h at 37° C. Then, the cells were washed three times with PBS to remove free nanoparticles and coumarin-6. Cell membranes were stained with 10 μg/mL Alexa Fluor 594-Concanavalin A conjugate in PBS for 10 min. […]

As to `CCN(CC)c1ccc2cc(-c3nc4ccccc4s3)c(=O)oc2c1` [free coumarin-6, Coumarin 6], the “fluorescence within cells (cell uptake)” value was “no noticeable signal was detected”.
